Experiments:
Test in all cases: relative viability (nuclei count vs DMSO), 5 days (fraction); higher = more cells survive
NCI-H1437 = system: NCI-H1437
Summary of the method: (§1)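 Relative viability equals treated-well nuclei counts divided by vehicle-well nuclei counts. Counts came from 4× images of lung cancer cell lines grown in 1536-well plates for 5 days after pin-tool dosing on the day after seeding. Dosing used one drug alone or a fixed anchor-drug dose plus five library-drug doses (not always all listed) in √10 steps, and values are medians of duplicate plates.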

RERF-LC-KJ = system: RERF-LC-KJ
Summary of the method: as §1

NCI-H1793 = system: NCI-H1793
Summary of the method: as §1

HCC-44 = system: HCC-44
Summary of the method: as §1

NCI-H1395 = system: NCI-H1395
Summary of the method: as §1

NCI-H322M = system: NCI-H322M
Summary of the method: as §1

BEN = system: BEN
Summary of the method: as §1

NCI-H1355 = system: NCI-H1355
Summary of the method: as §1

CAL-12T = system: CAL-12T
Summary of the method: as §1

LCLC-97TM1 = system: LCLC-97TM1
Summary of the method: as §1

NCI-H647 = system: NCI-H647
Summary of the method: as §1

NCI-H2087 = system: NCI-H2087
Summary of the method: as §1

NCI-H1650 = system: NCI-H1650
Summary of the method: as §1

NCI-H2405 = system: NCI-H2405
Summary of the method: as §1

201T = system: 201T
Summary of the method: as §1

NCI-H3122 = system: NCI-H3122
Summary of the method: as §1

NCI-H727 = system: NCI-H727
Summary of the method: as §1

NCI-H2228 = system: NCI-H2228
Summary of the method: as §1

HOP-62 = system: HOP-62
Summary of the method: as §1

LXF-289 = system: LXF-289
Summary of the method: as §1

HCC-827 = system: HCC-827
Summary of the method: as §1

SK-LU-1 = system: SK-LU-1
Summary of the method: as §1

LCLC-103H = system: LCLC-103H
Summary of the method: as §1

NCI-H2023 = system: NCI-H2023
Summary of the method: as §1

CC(C)Oc1cc(Nc2nc(N[C@@H](C)c3ccc(F)cn3)ncc2Cl)n[nH]1 [AZ23] + N=C(N)NC(=N)NCCc1ccccc1 [Phenformin] (partner 250 µM)
relative viability (NCI-H1437; first compound 0.01 µM): 0.298
relative viability (NCI-H1437; first compound 0.03162 µM): 0.336
relative viability (NCI-H1437; first compound 0.3162 µM): 0.345
relative viability (RERF-LC-KJ; first compound 0.01 µM): 0.455
relative viability (RERF-LC-KJ; first compound 0.03162 µM): 0.457
relative viability (RERF-LC-KJ; first compound 0.3162 µM): 0.463
relative viability (NCI-H1793; first compound 0.01 µM): 0.366
relative viability (NCI-H1793; first compound 0.03162 µM): 0.439
relative viability (NCI-H1793; first compound 0.3162 µM): 0.45
relative viability (HCC-44; first compound 0.01 µM): 0.231
relative viability (HCC-44; first compound 0.03162 µM): 0.4
relative viability (HCC-44; first compound 0.3162 µM): 0.245
relative viability (NCI-H1395; first compound 0.03162 µM): 0.483
relative viability (NCI-H1395; first compound 0.3162 µM): 0.451
relative viability (NCI-H322M; first compound 0.03162 µM): 0.903
relative viability (NCI-H322M; first compound 0.3162 µM): 0.785
relative viability (BEN; first compound 0.01 µM): 0.292
relative viability (BEN; first compound 0.03162 µM): 0.282
relative viability (BEN; first compound 0.3162 µM): 0.268
relative viability (NCI-H1355; first compound 0.01 µM): 0.462
relative viability (NCI-H1355; first compound 0.03162 µM): 0.483
relative viability (NCI-H1355; first compound 0.3162 µM): 0.455
relative viability (CAL-12T; first compound 0.03162 µM): 0.591
relative viability (CAL-12T; first compound 0.3162 µM): 0.524
relative viability (LCLC-97TM1; first compound 0.01 µM): 0.502
relative viability (LCLC-97TM1; first compound 0.03162 µM): 0.485
relative viability (LCLC-97TM1; first compound 0.3162 µM): 0.417
relative viability (NCI-H647; first compound 0.01 µM): 0.558
relative viability (NCI-H647; first compound 0.03162 µM): 0.797
relative viability (NCI-H647; first compound 0.3162 µM): 0.604
relative viability (NCI-H2087; first compound 0.01 µM): 0.645
relative viability (NCI-H2087; first compound 0.03162 µM): 0.449
relative viability (NCI-H2087; first compound 0.3162 µM): 0.458
relative viability (NCI-H1650; first compound 0.03162 µM): 0.537
relative viability (NCI-H1650; first compound 0.3162 µM): 0.405
relative viability (NCI-H2405; first compound 0.01 µM): 0.33
relative viability (NCI-H2405; first compound 0.03162 µM): 0.429
relative viability (NCI-H2405; first compound 0.3162 µM): 0.382
relative viability (201T; first compound 0.01 µM): 0.539
relative viability (201T; first compound 0.03162 µM): 0.438
relative viability (201T; first compound 0.3162 µM): 0.486
relative viability (NCI-H3122; first compound 0.01 µM): 0.387
relative viability (NCI-H3122; first compound 0.03162 µM): 0.439
relative viability (NCI-H3122; first compound 0.3162 µM): 0.373
relative viability (NCI-H727; first compound 0.01 µM): 0.571
relative viability (NCI-H727; first compound 0.03162 µM): 0.552
relative viability (NCI-H727; first compound 0.3162 µM): 0.485
relative viability (NCI-H2228; first compound 0.01 µM): 0.401
relative viability (NCI-H2228; first compound 0.03162 µM): 0.302
relative viability (NCI-H2228; first compound 0.3162 µM): 0.252
relative viability (HOP-62; first compound 0.01 µM): 0.684
relative viability (HOP-62; first compound 0.03162 µM): 0.792
relative viability (HOP-62; first compound 0.3162 µM): 0.79
relative viability (LXF-289; first compound 0.01 µM): 0.591
relative viability (LXF-289; first compound 0.03162 µM): 0.512
relative viability (LXF-289; first compound 0.3162 µM): 0.533
relative viability (HCC-827; first compound 0.01 µM): 0.436
relative viability (HCC-827; first compound 0.03162 µM): 0.42
relative viability (HCC-827; first compound 0.3162 µM): 0.404
relative viability (SK-LU-1; first compound 0.03162 µM): 0.586
relative viability (SK-LU-1; first compound 0.3162 µM): 0.517
relative viability (LCLC-103H; first compound 0.01 µM): 0.339
relative viability (LCLC-103H; first compound 0.03162 µM): 0.352
relative viability (LCLC-103H; first compound 0.3162 µM): 0.333
relative viability (NCI-H2023; first compound 0.03162 µM): 0.506
relative viability (NCI-H2023; first compound 0.3162 µM): 0.481

C[C@@H]1CN(CC(=O)Nc2ccc3c(c2)Cc2cccc(-c4cc(=O)cc(N5CCOCC5)o4)c2S3)C[C@H](C)O1 + N=C(N)NC(=N)NCCc1ccccc1 [Phenformin] (partner 250 µM)
relative viability (NCI-H1437; first compound 0.04 µM): 0.338
relative viability (NCI-H1437; first compound 0.1265 µM): 0.306
relative viability (NCI-H1437; first compound 0.4 µM): 0.303
relative viability (NCI-H1437; first compound 4 µM): 0.365
relative viability (RERF-LC-KJ; first compound 0.04 µM): 0.422
relative viability (RERF-LC-KJ; first compound 0.1265 µM): 0.368
relative viability (RERF-LC-KJ; first compound 0.4 µM): 0.379
relative viability (RERF-LC-KJ; first compound 4 µM): 0.323
relative viability (NCI-H1793; first compound 0.04 µM): 0.347
relative viability (NCI-H1793; first compound 0.1265 µM): 0.339
relative viability (NCI-H1793; first compound 0.4 µM): 0.272
relative viability (NCI-H1793; first compound 4 µM): 0.273
relative viability (HCC-44; first compound 0.04 µM): 0.176
relative viability (HCC-44; first compound 0.1265 µM): 0.233
relative viability (HCC-44; first compound 0.4 µM): 0.161
relative viability (HCC-44; first compound 4 µM): 0.114
relative viability (NCI-H1395; first compound 0.04 µM): 0.495
relative viability (NCI-H1395; first compound 0.1265 µM): 0.456
relative viability (NCI-H1395; first compound 0.4 µM): 0.417
relative viability (NCI-H1395; first compound 4 µM): 0.405
relative viability (NCI-H322M; first compound 0.04 µM): 0.701
relative viability (NCI-H322M; first compound 0.1265 µM): 0.74
relative viability (NCI-H322M; first compound 0.4 µM): 0.729
relative viability (NCI-H322M; first compound 4 µM): 0.691
relative viability (BEN; first compound 0.04 µM): 0.254
relative viability (BEN; first compound 0.1265 µM): 0.261
relative viability (BEN; first compound 0.4 µM): 0.294
relative viability (BEN; first compound 4 µM): 0.264
relative viability (NCI-H1355; first compound 0.04 µM): 0.455
relative viability (NCI-H1355; first compound 0.1265 µM): 0.482
relative viability (NCI-H1355; first compound 0.4 µM): 0.433
relative viability (NCI-H1355; first compound 4 µM): 0.43
relative viability (CAL-12T; first compound 0.04 µM): 0.712
relative viability (CAL-12T; first compound 0.1265 µM): 0.505
relative viability (CAL-12T; first compound 0.4 µM): 0.598
relative viability (CAL-12T; first compound 4 µM): 0.425
relative viability (LCLC-97TM1; first compound 0.04 µM): 0.354
relative viability (LCLC-97TM1; first compound 0.1265 µM): 0.469
relative viability (LCLC-97TM1; first compound 0.4 µM): 0.433
relative viability (LCLC-97TM1; first compound 4 µM): 0.483
relative viability (NCI-H647; first compound 0.04 µM): 0.472
relative viability (NCI-H647; first compound 0.1265 µM): 0.456
relative viability (NCI-H647; first compound 0.4 µM): 0.606
relative viability (NCI-H647; first compound 4 µM): 0.504
relative viability (NCI-H2087; first compound 0.04 µM): 0.458
relative viability (NCI-H2087; first compound 0.1265 µM): 0.451
relative viability (NCI-H2087; first compound 0.4 µM): 0.444
relative viability (NCI-H2087; first compound 4 µM): 0.437
relative viability (NCI-H1650; first compound 0.04 µM): 0.406
relative viability (NCI-H1650; first compound 0.1265 µM): 0.431
relative viability (NCI-H1650; first compound 0.4 µM): 0.37
relative viability (NCI-H1650; first compound 4 µM): 0.347
relative viability (NCI-H2405; first compound 0.04 µM): 0.402
relative viability (NCI-H2405; first compound 0.1265 µM): 0.411
relative viability (NCI-H2405; first compound 0.4 µM): 0.379
relative viability (NCI-H2405; first compound 4 µM): 0.487
relative viability (201T; first compound 0.04 µM): 0.439
relative viability (201T; first compound 0.1265 µM): 0.423
relative viability (201T; first compound 0.4 µM): 0.477
relative viability (201T; first compound 4 µM): 0.517
relative viability (NCI-H3122; first compound 0.04 µM): 0.409
relative viability (NCI-H3122; first compound 0.1265 µM): 0.387
relative viability (NCI-H3122; first compound 0.4 µM): 0.365
relative viability (NCI-H3122; first compound 4 µM): 0.301
relative viability (NCI-H727; first compound 0.04 µM): 0.626
relative viability (NCI-H727; first compound 0.1265 µM): 0.663
relative viability (NCI-H727; first compound 0.4 µM): 0.599
relative viability (NCI-H727; first compound 4 µM): 0.544
relative viability (NCI-H2228; first compound 0.04 µM): 0.356
relative viability (NCI-H2228; first compound 0.1265 µM): 0.406
relative viability (NCI-H2228; first compound 0.4 µM): 0.287
relative viability (NCI-H2228; first compound 4 µM): 0.289
relative viability (HOP-62; first compound 0.04 µM): 0.613
relative viability (HOP-62; first compound 0.1265 µM): 0.689
relative viability (HOP-62; first compound 0.4 µM): 0.715
relative viability (HOP-62; first compound 4 µM): 0.615
relative viability (LXF-289; first compound 0.04 µM): 0.482
relative viability (LXF-289; first compound 0.1265 µM): 0.517
relative viability (LXF-289; first compound 0.4 µM): 0.549
relative viability (LXF-289; first compound 4 µM): 0.517
relative viability (HCC-827; first compound 0.04 µM): 0.429
relative viability (HCC-827; first compound 0.1265 µM): 0.402
relative viability (HCC-827; first compound 0.4 µM): 0.401
relative viability (HCC-827; first compound 4 µM): 0.415
relative viability (SK-LU-1; first compound 0.04 µM): 0.621
relative viability (SK-LU-1; first compound 0.1265 µM): 0.531
relative viability (SK-LU-1; first compound 0.4 µM): 0.516
relative viability (SK-LU-1; first compound 4 µM): 0.373
relative viability (LCLC-103H; first compound 0.04 µM): 0.325
relative viability (LCLC-103H; first compound 0.1265 µM): 0.299
relative viability (LCLC-103H; first compound 0.4 µM): 0.302
relative viability (LCLC-103H; first compound 4 µM): 0.331
relative viability (NCI-H2023; first compound 0.04 µM): 0.458
relative viability (NCI-H2023; first compound 0.1265 µM): 0.432
relative viability (NCI-H2023; first compound 0.4 µM): 0.385
relative viability (NCI-H2023; first compound 4 µM): 0.344
